From patent US20060264418A1, “6-(2,2,2-Trifluoroethylamino-7-chloro-2,3,4,5-tetrahydro-1h-benzo[d] azephine as a 5-ht2c receptor agonist” (priority 2003, published 2006)

Columns and labels:
Wistar rats [1] = conditions: general statement on standards; cited from earlier work
male NIH Swiss mice [2] = assay: Marble burying assay (with rotorod); assay type: in vivo, mouse; conditions: 30 min. burying session
Source text: Marble burying in mice has been used to model anxiety disorders including obsessive-compulsive disorders (OCD) due to ethological study of the behavior (e.g. Gyertyan I. “Analysis of the marble burying response: Marbles serve to measure digging rather than evoke burying”, Behavioural Pharmacology 6: 24-31, (1995)) and due to the pharmacological effects of clinical standards (c.f., Njung′E K. Handley S L. “Evaluation of marble-burying behavior as a model of anxiety”, Pharmacology, Biochemistry & Behavior. 38: 63-67, (1991)); Borsini F., Podhorna J., and Marazziti, D. “Do animal models of anxiety predict anxiolytic effects of antidepressants?”, Psychopharmacology 163: 121-141, (2002)). Thus, drugs used in the treatment of generalized anxiety in humans (e.g. benzodiazepines) as well as compounds used to treat OCD (e.g. SSRIs like fluoxetine) decrease burying.
House experimentally-naïve male, NIH Swiss mice (Harlan Sprague-Dawley, Indianapolis, Ind.) weighing between 28-35 g in groups of 12 for at least three days prior to testing in a vivarium with 12 hr. light and dark cycles. Conduct experiments during the light cycle in a dimly lit experimental testing room. Dose mice with vehicle or compound and, after a specified pretreatment interval (generally 30 min.), place each mouse individually on a rotorod (Ugo Basile 7650) operating at a speed of 6 revolutions/min. and observe for falling. After 2 min. on the rotorod, place the mice individually in a 17×28×12 cm high plastic tub with 5 mm sawdust shavings on the floor that are covered with 20 blue marbles (1.5 cm diameter) placed in the center. After 30 min., count the number of marbles buried (⅔ covered with sawdust). Assess the compound's effect on marble burying with Dunnett's test and the effect on rotorod performance by Fisher's exact test.
Clinically effective standard compounds suppress marble burying at doses that are devoid of motor-impairing effects as measured on the rotorod. […]

Wistar rats [3] = assay: Schedule-induced polydipsia; assay type: in vivo, rat
Source text: Food-deprived rats exposed to intermittent presentations of food will drink amounts of water that are far in excess of their normal daily intake and in excess of their intake when given all of their food at one time (Falk J L. “Production of polydipsia in normal rats by an intermittent food schedule”, Science 133: 195-196, (1961)). This excessive behavior is persistent and has been used to model OCD.
Maintain Wistar rats on a food restricted diet (to maintain 85% free feeding weight), but with free access to water. Train the rats in a behavioral testing chamber to press a lever to receive a food pellet under a fixed interval schedule, such that the rats are rewarded with a 45 mg food pellet the first time they press a lever after a 120 second interval has elapsed. The fixed interval is then reset to 120 seconds and the process repeated. Thus, during a 90 min. test session, the rats can earn a maximum of 45 pellets. The behavioral chamber is also equipped with a water bottle that is weighed before and after the session to determine the amount of water consumed.
Administer test compounds on Tuesdays and Fridays. Determine control day performances on Thursdays. Administer compounds either orally at 60 min. before the beginning of a test session, or subcutaneously at 20 min. before the beginning of a test session. Compare the rates of lever pressing and water consumption for each animal's performance during sessions after test compound treatment with that animal's performance during control sessions, expressed as a percent of the control rate. Average the individual percent of control rates for each dose and calculate the standard error of the mean.
The in vivo efficacy of 5HT2C compounds at the 5HT2C receptor was confirmed by the prevention of effects of the 5HT2C agonists on excessive drinking by co-administration of the 5HT2C receptor antagonist, 6-chloro-5-methyl-N-(2-(2-methylpyridin-3-yl-oxy)pyridin-5-yl)aminocarbonyl)-2,3-dihydroindole.

male NIH Swiss mice [4] = assay: Nestlet shredding; assay type: in vivo, mouse; conditions: 30 min.
Source text: Mice naturally will construct nests of material available in their living environment. Since this behavior is obsessive in nature, it has been used to model OCD (Mia Li, Denise Morrow and Jeffrey M. Witkin, “Decreases in nestlet shredding of mice by serotonin uptake inhibitors: comparison with marble burying”, Psychopharmacology, submitted Jul. 14, 2003). House experimentally-naïve male, NIH Swiss mice (Harlan Sprague-Dawley, Indianapolis, Ind.) weighing between 28-35 g in groups of 12 for at least three days prior to testing in a vivarium with a 12 hr. light/dark cycle. Conduct experiments during the light cycle in an experimental room with normal overhead fluorescent lighting. Dose mice with vehicle or test compound and after a specified pretreatment interval (generally 30 min.), place the mice individually in a 17×28×12 cm high plastic tub with about 5 mm sawdust shavings on the floor along with a pre-weighed multi-ply gauze pad (51 mm square). After 30 min., weigh the remainder of the gauze pad not removed by the mouse. Determine the weight of the gauze used for nestlet construction by subtraction. Compare the results for test compound treated mice to the results for vehicle control treated mice with Dunnett's test.
Clinically effective OCD treatment standard compounds suppress nestlet shredding at doses that are devoid of motor-impairing effects as measured by the rotorod test. […]

## CN(C)CCCN1c2ccccc2CCc2ccc(Cl)cc21 [chlomipramine]
Wistar rats [1]
  schedule-induced polydipsia, clinically effective OCD treatment standard compounds: suppress schedule-induced polydipsia without producing notable changes in motor patterns, food intake, or behavior the following day

## FC(F)(F)CNc1c(Cl)ccc2c1CCNCC2
other
  melting point: 183 to 185.2 °C

## CN(C)CCCN1c2ccccc2Sc2ccc(Cl)cc21 [chlorpromazine, reference compound]
Male NIH Swiss mice [2]
  marble burying behavior (relative to rotorod performance): decreased marble burying only at doses that also disrupt rotorod performance

## C[C@H](N)Cc1ccccc1 [d-amphetamine, reference compound]
Wistar rats [3]; food restricted rats, 90 min. test session
  schedule-induced polydipsia (excessive drinking): decreases excessive drinking only at behaviorally stimulating doses
Wistar rats [3]; rats
  suppression of excessive drinking with co-administration of the 5-HT2C receptor antagonist: not prevented
Male NIH Swiss mice [4]
  nestlet shredding (relative to motor effects, rotorod test): decrease nestlet shredding only at doses that produce motoric side effects

## CNCCC(Oc1ccc(C(F)(F)F)cc1)c1ccccc1 (stereo not shown) [fluoxetine]
Wistar rats [1]
  schedule-induced polydipsia, clinically effective OCD treatment standard compounds: suppress schedule-induced polydipsia without producing notable changes in motor patterns, food intake, or behavior the following day
